We go through five compounds from patent US20150283227A1, “SYNTHETIC ENV PROTEINS” (priority 2012, published 2015).

Data set [1] deals with Man5GlcNAc2 V1V2 glycopeptide, DMSO-oxidized disulfide-linked dimer (HIV-1 strain AE.CM244 (A244)). The data set is described as follows: SPR kinetics, mAb captured on anti-IgG, DMSO-oxidized dimer injected; 1:1 Langmuir. (In general: In SPR one partner is held on a chip, and binding of the other changes the refractive index at the surface.)
Data set [2] addresses Man3GlcNAc2 V1V2 glycopeptide, DMSO-oxidized disulfide-linked dimer (HIV-1 strain AE.CM244 (A244)). Described as above.
Data set [3] deals with BnAb CH01. The data set is described as follows: SPR binding of V1V2 peptides/glycopeptides to captured mAb CH01. Set-up: species or system human.
Data set [4] has as its system BnAb PG9. The data set is classed as binding, human.
Method: V1V2 glycopeptide binding Kd and rate constant measurements were carried out on a BIAcore 3000 instrument using an anti-human Ig Fc capture assay as described earlier (Alam, S. M.; McAdams, M.; Boren, D.; Rak, M.; Scearce, R. M.; Gao, F.; Camacho, Z. T.; Gewirth, D.; Kelsoe, G.; Chen, P.; Haynes, B. F. J. Immunol. 2007, 178, 4424-4435.). Anti-human IgG Fc antibody (Sigma Chemicals) was immobilized on a CM5 sensor chip to about 10000 response units (RU), and each antibody was captured to about 300 RU. Anti-RSV Synagis mAb was captured on the same sensor chip as a control surface. Non-specific binding and drift in signal was double referenced by subtracting binding to the control surface and blank buffer flow for each of the peptide binding interactions. All curve-fitting analyses were performed using global fit of multiple titrations to the 1:1 Langmuir model. All data analysis was performed using the BIAevaluation 4.1 analysis software (GE Healthcare).
The nature of data set [5]: Circular dichroism analysis of V1V2 peptides. Particulars: dimerized in 20% DMSO-phosphate buffer about 20 h. It counts as physicochemical. How it is done: Circular dichroism (CD) spectra of V1/V2 peptides were measured on an Aviv model 202 spectropolarimeter using a 1 mm path length quartz cuvette. The 20% DMSO-treated peptides were dialyzed against 20 mM phosphate buffer, pH 7.0 to remove DMSO using a dialysis cassette of MW cut-off 3500 Da. The CD spectra of peptides (at 100 200 μg/ml concentration) in phosphate buffer (pH 7.4) were recorded at 25° C. Three scans of the CD spectra of each peptide were averaged and the CD signal from phosphate buffer was subtracted out.
Background: Circular dichroism is the unequal absorption of left and right circularly polarised light.

Data set [6] relates to CH01 UCA. Put plainly: SPR binding to unmutated ancestor of CH01. Set-up: species or system human. As for the experimental part: (§1) Only the V1/V2 mAb CH58 bound to the glycan-deficient (aglycone) peptide (FIG. 9A). V1/V2 bNAbs ([…], CH01) bound weakly to V1/V2 GlcNAc2 peptide (FIG. 9B). In contrast, both bNAbs PG9 and CH01 bound avidly to the glycopeptides, V1/V2 Man3GlcNAc2 and V1/V2 Man5GlcNAc2 (FIGS. 9C and 9D). CH58 bound weakly to both glycopeptides. Each of the mAbs was captured on a human Fc specific IgG directly immobilized on a BIAcore CM5 sensor chip. Each of the V1/V2 peptides (3 min at 50 uL/min) was injected over the mAb captured surface and SPR binding was monitored on a BIAcore 3000 instrument. Non-specific binding of peptides was subtracted following measurement of signal on a surface with a control ant-RSV mab Synagis.
(§2) The binding Kd (disassociation constant) of the UAs ranges from about 0.15 to 0.2 μM.
(§3) V1V2 glycopeptide binding Kd and rate constant measurements were carried out on BIAcore 3000 instruments as described earlier (Alam et al, Immunol. 178(7):4424-4435 (2007), Alam et al, J. Virol. 82(1):115-125 (2008)). Anti-human IgG Fc antibody (Sigma Chemicals) was immobilized on either a CM3 or CM5 (CM3 for kinetics and Kd determination) sensor chip (to minimize non-specific binding of peptides to chip matrix) to about 5000 Resonance Unit (RU) and each antibody was captured to about 100-200 RU on individual flow cells, in addition to one flow cell with the control Synagis mAb on the same sensor chip. Non-specific binding of V1V2 glycopeptide was double-referenced by substracting the control surface and blank buffer flow for each mAb-V1V2 glycopeptide binding interaction. […] SPR curve fitting analysis was performed using global fit of multiple titrations to the 1:1 Langmuir model. All data analysis was performed using the BIAevaluation 4.1 analysis software (GE Healthcare).

For data set [7], the system named is V2 mAb CH58. Put plainly: SPR binding of V1V2 peptides/glycopeptides to captured V2 mAb CH58. Set-up: species or system human.
For data set [8], the system named is PG9 UCA. The data set is described as follows: SPR binding to unmutated ancestor of PG9. Set-up: species or system human. How it is done: as §1, §2, §3
In data set [9] the target is CH58 UCA. The data set is described as follows: SPR binding to unmutated ancestor of CH58. Set-up: species or system human. Particulars: Example 6; CH58 UCA; DMSO-oxidized dimer, 1-10 μg/mL. As for the experimental part: as §1, §3
Setting [10] is: glycans in the absence of the V2 peptide backbone.
Where [11] appears, read: Example 5, peptides 200 μg/mL, glycans 25 μg/mL over captured PG9.
The mark [12] stands for this setting: Example 6, iodine-oxidized glycopeptide, 50 ug/mL.
The mark [13] stands for this setting: Example 6, spontaneously (air) oxidized, phosphate buffer, 50 ug/mL.

Entries after “also recorded” stand apart in the source; their conditions may differ. Where two headings read alike, the source gives them in different places. Marks after values point to notes of the source that are not given here.

With CH01 (antibody), in [1], the Kd (in general, a measure of binding affinity in units of concentration) amounted to 45.5 nM; the koff (usually a measure of how fast the partners let go of each other) was 0.000302 s⁻¹; the association rate constant (kon) (commonly the rate constant with which the complex forms) turned out to be 6640 M⁻¹ s⁻¹. In data set [2], the Kd stood at 32.1 nM, the koff was determined as 0.00032 s⁻¹ and the kon was found to be 9970 M⁻¹ s⁻¹.
Regarding `CC(=O)NC1C(O)OC(CO)[C@@H](O[C@@H]2OC(CO)[C@@H](O[C@@H]3OC(CO[C@H]4OC(CO)[C@@H](O)[C@H](O)C4O)[C@@H](O)[C@H](O[C@H]4O[C@@H](CO)[C@@H](O)C(O)C4O)C3O)[C@H](O)C2NC(C)=O)[C@@H]1O` (stereo partly drawn) [Man3GlcNAc2 glycan alone, [α-D-mannopyranosyl-(1→3)]-[α-D-mannopyranosyl-(1→6)]-β-D-mannopyranosyl-(1→4)-2-deoxy-2-N-acetyl-β-D-glucopyranosyl-(1→4)-2-deoxy-2-N-acetyl-D-glucopyranoside, reference compound], the “SPR binding to CH01” value in data set [3] (setting [10]) is on record as “not detected”. In addition, the “SPR binding to PG9” value is recorded as “minimal to no binding” in data set [4] (setting [11]); “not detected” in [4] (Example 5, peptides 200 μg/mL, glycans 25 μg/mL over captured PG9, listed as Man3GlcNAc2 glycan); “not detected” in data set [4] (Example 5, peptides 200 μg/mL, glycans 25 μg/mL over captured PG9, listed as Man3GlcNAc2 oligosaccharide).
With Man3GlcNAc2 V1V2, the “β-strand (CD spectra deconvolution, K2D3)” value in data set [5] is given as 33%. For the same compound, the “SPR binding to CH01 UA” value in data set [6] (Example 1) is listed as “binds”. The “SPR binding to CH01 UCA” value in [6] (Example 6) is “bound”. Further, the Kd was 1800 nM in data set [6] (Example 6, CH01 UCA, DMSO-oxidized dimer); 1780 nM in [6] (Example 6, CH01 UCA, DMSO-oxidized dimer, derived using faster component of dissociation phase); 1100 nM in [8] (Example 6, PG9 UCA, DMSO-oxidized dimer); 1060 nM in data set [8] (Example 6, PG9 UCA, DMSO-oxidized dimer, derived using faster component of dissociation phase); around 100 nM in [4] (Example 5, PG9, read-out: Kd (order of magnitude)); 119 nM in [4] (Example 5, glycopeptide 1-40 μg/mL over captured PG9, not deliberately oxidized, global fit 1:1 Langmuir, read-out: Kd). The Kd in data set [4] (Example 6, PG9, glycopeptide fully oxidized in 20% DMSO (dimer), listed as Man3, read-out: Kd) turned out to be 37 nM; in data set [4] (Example 6, PG9, glycopeptide fully oxidized in 20% DMSO (dimer), listed as Man3 GlcNAc2, read-out: Kd), 37.1 nM; in data set [9] it was 600 nM. The ka in data set [6] (Table 1, CH01 UCA, DMSO-oxidized dimer) is recorded as 2.06 M^−1s^−1 (×10^3); in data set [3] (Table 1, CH01, DMSO-oxidized dimer), 9.97 M^−1s^−1 (×10^3); in data set [8] (Table 1, PG9 UCA, DMSO-oxidized dimer), 5.33 M^−1s^−1 (×10^3); in data set [4] (Table 1, PG9, glycopeptide fully oxidized in 20% DMSO (dimer)), 3.97 M^−1s^−1 (×10^3). For the same compound, the “SPR binding to CH01” value in data set [3] (Example 1, peptide injected over captured mAb, listed as V1/V2 Man3GlcNAc2) is on record as “bound avidly; also recorded: bind selectively”; in data set [3] (setting [12]) it was “not to the BnAbs CH01 or PG9”; in data set [3] (setting [13]), “weak or no binding”. Moreover, the “SPR binding to CH58” value in data set [7] (Example 1, antigen injected over captured mAb) is listed as “bound weakly”; in [7] (setting [12]), “bound”; in [7] (setting [13]) it was “show binding”. For the same compound, in data set [8] (Example 1), the “SPR binding to PG9 UA” value is recorded as “binds”. For the same compound, in data set [8] (Example 6), the “SPR binding to PG9 UCA” value was “bound”. The “SPR binding to PG9” value in data set [4] (Example 1, peptide injected over mAb captured on anti-human Fc, BIAcore 3000, listed as V1/V2 Man3GlcNAc2) is listed as “bound avidly; also recorded: bind selectively”; in [4] (setting [13]) it was “weak or no binding”.
On to `CC(=O)NC1C(O)OC(CO)[C@@H](O[C@@H]2OC(CO)[C@@H](O[C@@H]3OC(CO[C@H]4OC(CO[C@H]5OC(CO)[C@@H](O)[C@H](O)C5O)[C@@H](O)[C@H](O[C@H]5O[C@@H](CO)[C@@H](O)C(O)C5O)C4O)[C@@H](O)[C@H](O[C@H]4O[C@@H](CO)[C@@H](O)C(O)C4O)C3O)[C@H](O)C2NC(C)=O)[C@@H]1O` (stereo partly shown) [Man5GlcNAc2 glycan alone, reference compound], for which the “SPR binding to CH01” value in [3] (setting [10]) is reported as “not detected”. The “SPR binding to PG9” value in data set [4] (setting [11]) is “minimal to no binding”; in data set [4] (Example 5, peptides 200 μg/mL, glycans 25 μg/mL over captured PG9, listed as Man5GlcNAc2 glycan), “not detected”.
With `CC(=O)N[C@H]1[C@H](O[C@H]2[C@H](O)[C@@H](NC(C)=O)C(O)O[C@@H]2CO)O[C@H](CO)[C@@H](O[C@@H]2O[C@H](CO[C@H]3O[C@H](CO[C@H]4O[C@H](CO)[C@@H](O)[C@H](O)[C@@H]4O)[C@@H](O)[C@H](O[C@H]4O[C@H](CO)[C@@H](O)[C@H](O)[C@@H]4O)[C@@H]3O)[C@@H](O)[C@H](O[C@H]3O[C@H](CO)[C@@H](O)[C@H](O)[C@@H]3O)[C@@H]2O)[C@@H]1O` (stereo partly shown) [Man5GlcNAc2 glycan alone, reference compound], the “SPR binding to PG9” value in [4] (setting [11]) is “not detected”.
